From patent US11236049B2, “Amorphous and crystalline forms of IDO inhibitors” (BRISTOL-MYERS SQUIBB COMPANY, priority 2017, dated 2022)
“And” between values parts separate entries of the source, which are not always exact repeats. Equal entries are not always repeated. Where two headings read alike, the source gives them in different places.

What was measured:
[1] = in vivo
[2] = Jet milling: milled physical properties; assay type: physicochemical
Excerpt: Particle size reduction can be achieved by jet milling using a 0202 Jet o Mizer loop Mill. Particle collisions are enabled by nitrogen gas supplied at high pressure to the milling chamber via two grinding nozzles. The feed rate of the drug substance into the mill is controlled by a feeder that supplies drug substance into the feed hopper of the mill at a visually consistent feed rate. High pressure nitrogen gas is supplied through the venturi nozzle to inject drug substance from the mill feed hopper into the milling chamber, and this is referred to as the venture pressure. The grinding and venturi pressures are adjusted to the desired level before the start of milling, and both are kept at the same level unless product blow back from the feed hopper is observed. The venturi pressure is typically adjusted to 10 PSI above the grinding pressure. The micronized drug substance exits via the mill chamber outlet to be collected in the product collection unit consisting of a combined cyclone and porous fabric filter media assembly. Milling parameters may be adjusted based on sample analysis. Particle sizes that range between 12.7 μm and 24.0 μm (D90 by laser-light scattering) are achieved from the milling operation.

[3] = pH solubility of Compound 1 MSA Salt Form 1; assay type: physicochemical
Method: Measurements were taken using an Orion ATI Model 370 pH meter. […] To each vial was added 5 mL of various aqueous acidic and basic solutions. Each vial was stoppered and vortexed and sonicated to mix well. The pH of each sample was recorded. […] After 24 hours of stirring, the pH of each sample (as a suspension) was recorded. Suspensions were filtered with 0.2 micron Acrodisc syringe filters. The clear filtrates were collected and vortexed to mix well pH of each filtrated was recorded. pH of suspension and filtrate were nearly identical. A 1.0 mL aliquot of each of the filtrates 25-fold using 50% acetonitrile/50% Milli-Q water, q.w. each flask to 25 mL. […] Samples were assayed using the following HPLC method: Column: […] Mobile phase Solvent A: Water w/0.05% TFA • Solvent B: Acetonitrile w/0.05% TFA […] Column temperature: Ambient RT Detector Wavelength: 250 nm […] Working Concentration: […] Added 20 mL of 100% acetonitrile to the vial. Stoppered, vortexed, and sonicated the vial. […] Transferred the suspension to a 250 mL glass volumetric flask, and washed out the glass vial with 4×20 mL 50% acetonitrile/50% Milli-Q water, transferring each wash into the volumetric flask. All solids dissolved. Q.S. the volumetric flask to 250 mL final volume using 50% acetonitrile/50% Milli Q water, shake to give standard solution at 101.5 mcg/mL.

[4] = assay type: physicochemical
Method: Stability Testing Chromatographic Conditions: VHPLC Parameters VHPLC System: Waters AcQuity BSM or […] system equipped with a Waters UV/Vis Detector Column: Ascentis Express C18, 150 mm×2.1 mm i.d., 2.7 um particle size. Detector Wavelength: 218 nm VHPLC detector time constrat: normal VHPLC sampling rate: 20 Hz […] Flow Rate: 0.5 mL/min Injection volume 1 uL Column temperature: 30° C. Run time: 14 minutes Sample temperature: 5° C. Mobile Phase A: water:acetonitrile:TFA (95:5:0.05) Mobile Phase B: water: acetonitrile:TFA (5:95:0.05) [table] […] The study consisted of one batch of drug substance packaged in double LDPE bags, placed in a 0.6 L HDPE paid with a lid and gasket.

[5] = for AUC (Mean) / Dissolution Rate (Mean): 150 mg in 250 mL (0.60 mg/mL API equivalent), 37° C.
Method: Microdissolution Microdissolution experiments were conducted in a pIon μDiss Profiler microdissolution instrument (pION μDiss Profiler) with a fiber optic UV monitoring system, as follows: Probes: 2.5 mm probes (5 mm path length) Volume: 15 ml Stirring: 150 rpm Temperature: 37° C. […] The target doses were 150 mg in 250 mL (0.60 mg/mL API equivalent) in FaSSIF (pH 6.5) and FeSSIF (pH 5).

[6] = No. 1 Long Term, 5° C., 1 month
[7] = No. 1 Long Term, 5° C., 3 months
[8] = No. 1 Long Term, 5° C., 6 months
[9] = No. 1 Long Term, 5° C., 12 months
[10] = No. 2 Long Term, 25° C./60% RH, 1 month
[11] = No. 2 Long Term, 25° C./60% RH, 3 months
[12] = No. 2 Long Term, 25° C./60% RH, 6 months
[13] = No. 2 Long Term, 25° C./60% RH, 12 months
[14] = No. 3 Accelerated, 40° C./75% RH, 1 month
[15] = No. 3 Accelerated, 40° C./75% RH, 2 weeks
[16] = No. 3 Accelerated, 40° C./75% RH, 3 months
[17] = No. 3 Accelerated, 40° C./75% RH, 6 months
[18] = No. 5 Stress, 40° C./75% RH exposed, 1 month
[19] = No. 5 Stress, 40° C./75% RH exposed, 2 weeks
[20] = No. 5 Stress, 40° C./75% RH exposed, 3 months
[21] = No. 5 Stress, 40° C./75% RH exposed, 6 months
[22] = No. 7 Stress, 25° C./HIL/UVA Exposed, 2 weeks
[23] = No. 7 Stress, 25° C./HIL/UVA Exposed, 4 days
[24] = No. 7 Stress, 25° C./HIL/UVA protected, 2 weeks
[25] = No. 7 Stress, 25° C./HIL/UVA protected, 4 days

oral bioavailability [1]: increased oral bioavailability | Bulk density ([2]; for sample with D90 of 22.3 μm): 0.193 g/mL | D50 ([2]; range from 0202 Jet Mill): 6.2-9.8 μm | Surface area ([2]; range from 0202 Jet Mill): 2.08-3.63 m^2/g | D90 ([2]; range from 0202 Jet Mill, laser-light scattering): 12.7-24.0 μm | Solubility ([3]; pH 0.49): 24 µg/mL | Solubility ([3]; pH 1.01): 73 µg/mL | Solubility ([3]; pH 2.46): 147 µg/mL | Solubility ([3]; pH 2.7): 85 µg/mL | Solubility ([3]; pH 3.14): 18 µg/mL | Solubility ([3]; pH 3.61): 3 µg/mL | Solubility ([3]; pH 4.53): 1 µg/mL | Solubility ([3]; pH 6.82): 1 µg/mL | Solubility ([3]; pH 7): 96 µg/mL | Solubility ([3]; pH 9.68): 2 µg/mL | photostability study conclusion [4]: does not need to be protected from light | Assay “as is” [4, 6]: 81.9% | Assay “corrected” [4, 6]: 100.5% | Assay “as is” [4, 7]: 82.4% | Assay “corrected” [4, 7]: 101.1% | Assay “as is” [4, 8]: 81.2% | Assay “corrected” [4, 8]: 99.6% | Assay “as is” [4, 9]: 81.7% | Assay “corrected” [4, 9]: 100.5% | Assay “as is” [4, 10]: 82.1% | Assay “corrected” [4, 10]: 100.8% | Assay “as is” [4, 11]: 81.7% | Assay “corrected” [4, 11]: 100.4% | Assay “as is” [4, 12]: 81.2% | Assay “corrected” [4, 12]: 99.7% | Assay “as is” [4, 13]: 81.1% | Assay “corrected” [4, 13]: 99.8% | Assay “as is” [4, 14]: 82.3% | Assay “corrected” [4, 14]: 101.0% | Assay “as is” [4, 15]: 80.7% | Assay “corrected” [4, 15]: 99.1% | Assay “as is” [4, 16]: 81.5% | Assay “corrected” [4, 16]: 100.1% | Assay “as is” [4, 17]: 81.8% | Assay “corrected” [4, 17]: 100.4% | Assay “as is” ([4]; No. 4 Stress, −20° C., 1 month): 82.4% | Assay “corrected” ([4]; No. 4 Stress, −20° C., 1 month): 101.1% | Assay “as is” [4, 18]: 81.6% | Assay “corrected” [4, 18]: 100.3% | Assay “as is” [4, 19]: 80.9% | Assay “corrected” [4, 19]: 99.3% | Assay “as is” [4, 20]: 81.4% | Assay “corrected” [4, 20]: 99.9% | Assay “as is” [4, 21]: 80.3% | Assay “corrected” [4, 21]: 98.6% | Assay “as is” ([4]; No. 6 Stress, 50° C., 1 month): 82.0% | Assay “corrected” ([4]; No. 6 Stress, 50° C., 1 month): 100.7% | Assay “as is” ([4]; No. 6 Stress, 50° C., 2 weeks): 80.8% | Assay “corrected” ([4]; No. 6 Stress, 50° C., 2 weeks): 99.2% | Assay “as is” ([4]; No. 6 Stress, 50° C., 3 months): 82.2% | Assay “corrected” ([4]; No. 6 Stress, 50° C., 3 months): 100.9% | Assay “as is” [4, 22]: 78.7% | Assay “corrected” [4, 22]: 96.8% | Assay “as is” [4, 23]: 80.8% | Assay “corrected” [4, 23]: 99.2% | Assay “as is” [4, 24]: 80.4% | Assay “corrected” [4, 24]: 98.7% | Assay “as is” [4, 25]: 81.1% | Assay “corrected” [4, 25]: 99.5% | storage time remained stable ([4]; accelerated condition of 40° C./75% RH): ≥ 6 months | changes in XRD pattern ([4]; after any of the study numbers): No changes | change in total impurities on light exposure ([4]; approximately 3.5 times the minimum ICH exposure): slight increase | Color and appearance (white or off-white powder or powder with lumps) ([4]; during the studies): maintained | 4-chloroaniline (impurity) ([4]; initial): 0.09% | enantiomeric impurity of Compound 1 ([4]; initial): < 0.05% | total impurities ([4]; initial): 0.57% | water content ([4]; initial): < 0.1 % w/w | Assay “as is” ([4]; initial (average of 2 results)): 79.0% and 79.0^1% | Assay “corrected” ([4]; initial (average of 2 results)): 97.0% and 97.0^1% | storage time remained stable ([4]; long-term conditions of 5° C. and 25° C./60% relative humidity (RH)): at least 12 months | changes on light exposure ([4]; minimum ICH Q1B exposure): Essentially no changes | storage time remained stable ([4]; stress condition of 50° C.): ≥ 3 months | total impurities ([4]; study number 3): 0.48% | total impurities ([4]; study number 6): 0.50% | changes in assay “as is” or “corrected” from initial ([4]; study numbers 1, 2, 3, and 5): Essentially no changes | changes in enantiomeric impurity ([4]; study numbers 1 and 2): No changes | changes in water content ([4]; study numbers 1 and 2): Essentially no changes | 4-chloroaniline (impurity) ([4]; study numbers 3 and 6 (both conditions)): < 0.05% | changes in total impurities from initial ([4]; study numbers 4, 1, 2, and 3): Essentially no changes | rate and extent of dissolution compared to an amorphous form or HCl salts (amorphous and crystalline) ([5]; Example 14, FIG. 7, both FeSSiF and FaSSiF, simulated 150 mg human dose): faster rate and extent of dissolution | rate and extent of dissolution compared to Compound 1 free base (amorphous) ([5]; Example 14, FIG. 8, FaSSIF and FeSSIF at 0.2 mg/mL): faster rate and extent of dissolution | rate of dissolution ([5]; Example 16, FeSSIF): 38 µg/mL/min | AUC (Mean) ([5]; FaSSIF (pH 6.5)): 14988.073 µg·min/mL | Dissolution Rate (Mean) ([5]; FaSSIF (pH 6.5)): 2.460 µg/mL/min | AUC (Mean) ([5]; FeSSIF (pH 5)): 46410.396 µg·min/mL | Dissolution Rate (Mean) ([5]; FeSSIF (pH 5)): 38.850 µg/mL/min | Peak Solubility (Mean) ([5]; pH 5): 271.564 µg/mL | Peak Solubility (Mean) ([5]; pH 6.5): 100.877 µg/mL
SMILES: CS(=O)(=O)O.C[C@@H](C(=O)Nc1ccc(Cl)cc1)[C@H]1CC[C@@H](c2ccnc3ccc(F)cc32)CC1 [Compound 1 MSA Salt Form 1, (R)-N-(4-chlorophenyl)-2-((1S,4S)-4-(6-fluoroquinolin-4-yl)cyclohexyl)propanamide methanesulfonate]
